{
  "source": "patent US20030114357A1",
  "about": "“Methods related to the A-C repeat Z-sequence upstream from the aldose reductase gene” (priority 2001, published 2003)",
  "key": {"[1]": {"test_system": "subjects with painful, symmetrical polyneuropathy", "experiment": "Composite neuroelectrophysiology (NE) parameter (modified O'Brien score), double-blind study placebo vs zopolrestat, 12 week change", "format": "in vivo, human", "conditions": "placebo vs combined treatment groups (250 and 500 mg zopolrestat dose)", "from_the_text": "(§1) Diabetic neuropathy, a complication arising from diabetes mellitus, is an example of conditions that are mediated by having at least one allele of the (A-C)n repeat Z sequence associated with the aldose reductase gene wherein the value of n is less than 24. […] Such evaluation may be performed by measuring changes in nerve conduction velocity (NCV) in the following nerves: median motor, ulnar sensory, median sensory (both distal and proximal segments), peroneal motor and sural sensory. Testing is performed prior to the initiation of administration of the Agent and one or more times thereafter. An exemplary schedule for neuroelectrophysiology evaluation is prior to initiation of administration of the Agent and at weeks 12, 24 and 52 following initiation of administration.\n(§2) Tables 1 and 2 illustrate the effect of administration of the aldose reductase inhibitor, zopolrestat, on NCV of subjects having one and two alleles of the Z sequence having less than 24 A-C repeats. […] The NCV results from Tables 1 and 2 where obtained according to the protocol described in Example 2 of the General Experimental Procedures.\nComposite NE parameter is calculated according to the technique described in O'Brien, P. C., Biometrics, 40, 1079-1087 (1984). For ease of interpretation, the standard composite NE parameter of O'Brien is slightly modified for Tables 1 and 2. The standard O'Brien method would give values of 0 to 1. For the modified O'Brien score, the standard O'Brien value is reduced by 0.5 to give a value in the range of −0.5 to 0.5 with an expected value of 0. Values lower than 0 correspond to an overall composite NE decrease relative to the entire patient population, while values greater than 0 correspond to a relative increase.\n(§3) The terms “1 short” and “2 short” as used in Tables 1 and 2 refers to the number of alleles found in each subject where n has a value of less than 24 for the (A-C)n repeat Z sequence. “1 short” refers to subjects having only one allele wherein n is less than 24. “2 short” refers to subjects having two alleles wherein n is less than 24. […]"}, "[2]": {"test_system": "subjects with painful, symmetrical polyneuropathy", "experiment": "Peroneal motor nerve conduction velocity (NCV), double-blind study placebo vs zopolrestat, 12 week change", "format": "in vivo, human", "conditions": "placebo vs combined treatment groups (250 and 500 mg zopolrestat dose)", "from_the_text": "as §1, §2, §3\nNerve Conduction Velocity (“NCV”) is defined as the maximal speed in which Compound Action Potentials are propagated within a nerve, generally reflecting the activity in the fastest and largest neurons and calculated in meters per second by dividing distance in mm by Latency. […]\n3. […] Skin temperature is measured prior to and at the conclusion of testing at sites midway between the stimulating and recording electrodes for each limb. Temperature is monitored and adjusted during testing using either a feedback controlled infrared radiant heater, a water bath or a temperature controlled blanket wrap. […]"}},
  "data": [
    {"compound": "O=C(O)Cc1nn(Cc2nc3cc(C(F)(F)F)ccc3s2)c(=O)c2ccccc12", "note": "[zopolrestat]", "values": [
      {"measurement": "Composite NE Parameter (modified) 12 Week Change Mean Treatment Effect", "setting": "[1]; Group 1 Short (only one Z-sequence allele n<24)", "result": 0.04},
      {"measurement": "Composite NE Parameter (modified) 12 Week Change Mean Treatment Effect", "setting": "[1]; Group 2 Short (two Z-sequence alleles n<24)", "result": 0.09},
      {"measurement": "Composite NE Parameter (modified) 12 Week Change Mean Treatment Effect", "setting": "[1]; Group Combined, range -0.5 to 0.5", "result": 0.07},
      {"measurement": "Peroneal Motor 12 Week Change Mean Treatment Effect", "setting": "[2]; Group 1 Short (subjects with only one Z-sequence allele n<24)", "result": 0.22},
      {"measurement": "Peroneal Motor 12 Week Change Mean Treatment Effect", "setting": "[2]; Group 2 Short (subjects with two Z-sequence alleles n<24)", "result": 2.35},
      {"measurement": "Peroneal Motor 12 Week Change Mean Treatment Effect", "setting": "[2]; Group Combined (1 short + 2 short Z-sequence alleles, n<24), NCV, calculated in meters per second", "result": 1.63}
    ]}
  ]
}
